The values below are quoted from earlier work in patent US20230065004A1, “METHOD FOR IMPROVING COLOUR RETENTION OF DYED KERATINOUS MATERIAL, ESPECIALLY HUMAN HAIR” (Henkel AG & Co. KGaA, priority 2019, published 2023).

The conditions of this series: 25° C.
Consider `O=C([O-])C1=NN(c2ccc(S(=O)(=O)[O-])cc2)C(=O)C1N=Nc1ccc(S(=O)(=O)[O-])cc1.[Na+].[Na+].[Na+]` (stereo not shown) [Acid Yellow 23, trisodium salt of 4,5-dihydro-5-oxo-1-(4-sulfophenyl)-4-((4-sulfophenyl)azo)-1H-pyrazole-3-carboxylic acid], for which the “solubility in water” value is reported as “highly soluble”. With `Nc1cc(S(=O)(=O)[O-])cc2cc(S(=O)(=O)[O-])c(N=Nc3ccccc3)c(O)c12.[Na+].[Na+]` [Acid Red 33, dinatrium salt of 5-amino-4-hydroxy-3-(phenylazo)-naphthalene-2,7-disulphonate], the solubility in water entry is on record as “about 2.5 g/L”. As to `O=S(=O)([O-])c1ccc(N=Nc2c(O)ccc3ccccc23)cc1.[Na+]` [Acid Orange 7, sodium salt of 4-[(2-hydroxy-1-naphthyl)azo]benzene sulphonate], the solubility in water entry is listed as “more than 7 g/L”.

For the molecule `CCN(Cc1cccc(S(=O)(=O)[O-])c1)c1ccc(C(=C2C=CC(=[N+](CC)Cc3cccc(S(=O)(=O)[O-])c3)C=C2)c2ccccc2S(=O)(=O)[O-])cc1.[Na+].[Na+]` [Acid Blue 9], the solubility in water result was “more than 20 wt. %”.
